Laboratory results as given in publication PMC5633740, “Identification of YfiH and the Catalase CatA As Polyphenol Oxidases of Aeromonas media and CatA as a Regulator of Pigmentation by Its Peroxyl Radical Scavenging Capacity” (Frontiers in Microbiology, 2017).

Target: T1, CatA (PPO2; catalase; His6-tagged CatA) (Aeromonas media, UniProt A0AAE7AJ24)
T1 construct: gene E4188_09760; full ORF (1,449 bp) in pET-26b(+) NdeI/XhoI, His6-tagged, expressed in E. coli BL21(DE3), Ni-NTA; 55 kDa peak by gel filtration
Assay: native-PAGE activity staining of purified protein
Format: biochemical
Conditions: 5 mM L-DOPA, 50 mM Tris-HCl pH 8.0, 30 °C, 30 min; qualitative

T1 sequence (A0AAE7AJ24 entry or part of it): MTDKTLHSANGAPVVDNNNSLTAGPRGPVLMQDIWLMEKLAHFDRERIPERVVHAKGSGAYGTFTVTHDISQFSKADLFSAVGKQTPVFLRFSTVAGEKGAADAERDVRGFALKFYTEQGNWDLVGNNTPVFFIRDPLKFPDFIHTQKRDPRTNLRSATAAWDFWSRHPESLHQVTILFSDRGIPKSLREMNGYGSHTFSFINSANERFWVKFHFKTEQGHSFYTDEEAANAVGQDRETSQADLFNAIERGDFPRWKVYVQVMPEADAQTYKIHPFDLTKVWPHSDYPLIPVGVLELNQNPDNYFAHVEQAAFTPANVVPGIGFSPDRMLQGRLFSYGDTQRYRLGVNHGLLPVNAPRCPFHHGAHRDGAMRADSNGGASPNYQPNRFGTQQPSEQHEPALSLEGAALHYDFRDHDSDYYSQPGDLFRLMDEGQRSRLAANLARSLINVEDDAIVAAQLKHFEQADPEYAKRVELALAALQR

N[C@@H](Cc1ccc(O)c(O)c1)C(=O)O [L-DOPA, L-3,4-dihydroxyphenylalanine]
native-PAGE activity staining of purified protein: All His6-tagged proteins exhibited both catalase and PPO activity
